The values that follow come from patent publication US8937078B2, “Quinazolinones as prolyl hydroxylase inhibitors” (Janssen Pharmaceutica NV, priority 2009, dated 2015).

Counter-ions that a name gives are not always drawn.

Assay [1] concerns the target T1, human PHD2 (PHD2181-417) (Homo sapiens, UniProt Q9GZT9).
T1 construct: Smt (SUMO) tag (cleaved yes); made in house; host or cells: E. coli BL21 (pBAD vector)
Description: PHD enzymatic assay ([14C]-succinic acid production). In kind it is biochemical. Particulars: PHD2181-417, HIF-1α peptide 10 μM, average of results; read-out: Enzyme pIC50 (converted). Here is the method: Protein production was achieved by expression in BL21 cells grown in Terrific Broth containing 100 μg/ml ampicillin. Cell cultures were inoculated at 37° C. and grown to an OD600 of 0.8. Cultures were induced with 0.1% arabinose and grown overnight at 20° C. with continuous shaking at 225 rpm. Cells were then harvested by centrifugation and stored at −80° C. Cell pellets were suspended in Buffer A (50 mM Tris-HCl pH 7.2, 100 mM NaCl, 100 mM L-arginine, 1 mM TCEP, 0.05% (w/v) NP-40, 50 mM imidazole) followed by the addition of lysozyme and benzonase. Cells were lysed by sonication and the lysate was cleared by centrifugation (15,000 rpm, 90 min, 4° C.). The protein was purified by nickel affinity chromatography using a HisTrap Crude FF column (GE Healthcare). Samples were eluted in Buffer A with a 50-200 mM imidazole gradient. […] The flow-through was then dialyzed into 50 mM MES pH 6.0, 1 mM TCEP, 5 mM NaCl for ion exchange chromatography on a HiTrap SP Cation Exchange column (GE Healthcare). […] Fractions were pooled for further purification by size exclusion chromatography over a Superdex 75 Size Exclusion Column (GE Healthcare). Final protein was concentrated to 4 mg/ml and dialyzed in 10 mM PIPES pH 7.0, 100 mM NaCl, 0.5 mM TCEP.
(10 μM, California Peptide Research Inc., Napa, Calif.), and [5-^14C]-2-oxoglutaric acid (50 mCi/mmol, Moravek Chemicals, Brea, Calif.) in reaction buffer (40 mM Tris-HCl, pH 7.5, 0.4 mg/ml catalase, 0.5 mM DTT, 1 mM ascorbate) for 10 minutes. The reaction was stopped by addition of 50 μl of 70 mM H3PO4 and 50 μl of 500 mM NaH2PO4, pH3.2. Detection of [^14C]-succinic acid was achieved by separating from [5-^14C]-2-oxoglutaric acid by incubating the reaction mixture with 100 μl of 0.16 M DNP prepared in 30% perchloric acid. Next, 50 μl of unlabeled 20 mM 2-oxoglutaric acid/20 mM succinic acid, serving as carrier for the radioactivity, was added to the mixture, and was allowed to proceed for 30 minutes at room temperature. The reaction was then incubated with 50 μl of 1 M 2-oxoglutaric acid for 30 additional minutes at room temperature to precipitate the excess DNP. The reaction was then centrifuged at 2800×g for 10 minutes at room temperature to separate [^14C]-succinic acid in the supernatant from the precipitated [^14C]-dinitrophenylhydrazone. Fractions of the supernatant (400 μl) were counted using a beta counter (Beckman Coulter, Fullerton, Calif.).

Assay [2] has as its system Hep-3B cells. Description: Cellular assay: erythropoietin secretion in Hep-3B cells. Particulars: Homo sapiens, Hep3B, 100 μM compound, 24 hours, percent of EPO secretion relative to assay control compound 7-[(4-Chloro-phenyl)-(5-methyl-isoxazol-3-ylamino)-methyl]-quinolin-8-ol, read-out: Cellular % EPO Stimulation. In kind it is cell-based, human. Here is the method:
Hep-3B cells (ATCC, Manassas, Va.) were plated in 96-well plates at 20,000 cells per well in 100 μl of DMEM containing 10% fetal bovine serum, 1% non-essential amino acids, 50 IU/mL of penicillin and 50 μg/mL of streptomycin (all cell culture reagents from Invitrogen, Carlsbad, Calif.). Twenty-four hours after plating, compounds were added and incubated for an additional 24 hours. All compounds were tested under saturating conditions with final compound concentrations at 100 μM. Fifty microliters of the supernatant was then transferred to a human Hypoxia assay kit (Meso-Scale Discovery, Gaithersburg, Md.). Erythropoietin in the supernatant was detected according to the manufacturer's instructions as follows. EPO detection plates were blocked with 3% BSA in PBS overnight and 50 μl of the supernatant was incubated at room temperature in an orbital shaker for 2 h. Twenty-five microliters of 0.5 μg/ml anti-EPO detection antibody was added for 2 hours at room temperature in an orbital shaker. After 3 washes in PBS, 150 μl of 1× read buffer is added and the plate is then read on the MSD SECTOR instrument.

T1 sequence (Q9GZT9 181-417): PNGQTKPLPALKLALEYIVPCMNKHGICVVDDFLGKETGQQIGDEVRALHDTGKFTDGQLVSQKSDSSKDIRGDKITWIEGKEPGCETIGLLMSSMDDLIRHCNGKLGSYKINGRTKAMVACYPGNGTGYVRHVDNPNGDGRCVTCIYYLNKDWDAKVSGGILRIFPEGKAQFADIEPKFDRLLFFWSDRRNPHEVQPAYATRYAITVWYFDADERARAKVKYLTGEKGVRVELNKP

For the compound `COc1cccc(C2CCCN(c3cc4c(=O)[nH]c(-n5cc(C(=O)O)cn5)nc4cc3Cl)C2)c1` (racemic) [Example 86, (rac)-1-{7-Chloro-6-[3-(3-methoxy-phenyl)-piperidin-1-yl]-4-oxo-3,4-dihydro-quinazolin-2-yl}-1H-pyrazole-4-carboxylic acid], the IC50 in assay [1] is 25.1 nM. Moreover, the Emax at 100 µM in assay [2] was 71%.
Take `O=C(O)c1cnn(-c2nc3cc(Cl)ccc3c(=O)[nH]2)c1` [Example 1, 1-(7-Chloro-4-oxo-3,4-dihydro-quinazolin-2-yl)-1H-pyrazole-4-carboxylic acid]: in assay [1], the IC50 is 50.1 nM. The Emax at 100 µM in assay [2] is 37%.
In the case of `O=C(O)c1cnn(-c2nc3cc(C(F)(F)F)ccc3c(=O)[nH]2)c1` [Example 2, 1-(7-Trifluoromethyl-4-oxo-3,4-dihydro-quinazolin-2-yl)-1H-pyrazole-4-carboxylic acid], the IC50 in assay [1] is 158 nM. Also, the Emax at 100 µM in assay [2] was 21%.
In the case of `O=C(O)c1cnn(-c2nc3cc(Cl)c(Cl)cc3c(=O)[nH]2)c1` [Example 3, 1-(6,7-Dichloro-4-oxo-3,4-dihydro-quinazolin-2-yl)-1H-pyrazole-4-carboxylic acid], the IC50 in assay [1] was 25.1 nM. In assay [2], the Emax at 100 µM was determined as 37%.
For `O=C(O)c1cnn(-c2nc3ccc(F)cc3c(=O)[nH]2)c1` [Example 4, 1-(6-Fluoro-4-oxo-3,4-dihydro-quinazolin-2-yl)-1H-pyrazole-4-carboxylic acid], the IC50 in assay [1] is 39.8 nM. For the same compound, the Emax at 100 µM in assay [2] was 15%.
With `O=C(O)c1cnn(-c2nc3cc(F)c(F)cc3c(=O)[nH]2)c1` [Example 5, 1-(6,7-Difluoro-4-oxo-3,4-dihydro-quinazolin-2-yl)-1H-pyrazole-4-carboxylic acid, trifluoroacetate salt], the IC50 in assay [1] is 20 nM. Also, the Emax at 100 µM in assay [2] was 21%.
`O=C(O)c1cnn(-c2nc3cccc(Cl)c3c(=O)[nH]2)c1` [Example 6, 1-(5-Chloro-4-oxo-3,4-dihydro-quinazolin-2-yl)-1H-pyrazole-4-carboxylic acid]: the IC50 in assay [1] is 158 nM. The Emax at 100 µM in assay [2] turned out to be 19%.
On to `COc1cccc2c(=O)[nH]c(-n3cc(C(=O)O)cn3)nc12` [Example 7, 1-(8-Methoxy-4-oxo-3,4-dihydro-quinazolin-2-yl)-1H-pyrazole-4-carboxylic acid], for which the IC50 in assay [1] is 158 nM. Moreover, the Emax at 100 µM in assay [2] was found to be 25%.
For the compound `Cc1ccc2nc(-n3cc(C(=O)O)cn3)[nH]c(=O)c2c1` [Example 8, 1-(6-Methyl-4-oxo-3,4-dihydro-quinazolin-2-yl)-1H-pyrazole-4-carboxylic acid], in assay [1], the IC50 was 39.8 nM. In addition, the Emax at 100 µM in assay [2] worked out at 14%.
On the same counts, the results for `Cc1cccc2c(=O)[nH]c(-n3cc(C(=O)O)cn3)nc12` [Example 9, 1-(8-Methyl-4-oxo-3,4-dihydro-quinazolin-2-yl)-1H-pyrazole-4-carboxylic acid] are 79.4 nM and 49%.
On to `Cc1ccc2c(=O)[nH]c(-n3cc(C(=O)O)cn3)nc2c1` [Example 10, 1-(7-Methyl-4-oxo-3,4-dihydro-quinazolin-2-yl)-1H-pyrazole-4-carboxylic acid], for which the IC50 in assay [1] is 50.1 nM. Further, the Emax at 100 µM in assay [2] is 32%.
Regarding `O=C(O)c1cnn(-c2nc3c(Br)cccc3c(=O)[nH]2)c1` [Example 11, 1-(8-Bromo-4-oxo-3,4-dihydro-quinazolin-2-yl)-1H-pyrazole-4-carboxylic acid], the IC50 in assay [1] is 158 nM. Also, the Emax at 100 µM in assay [2] was determined as 40%.
As for `O=C(O)c1cnn(-c2nc3ccc(I)cc3c(=O)[nH]2)c1` [Example 12, 1-(6-Iodo-4-oxo-3,4-dihydro-quinazolin-2-yl)-1H-pyrazole-4-carboxylic acid], in assay [1], the IC50 is 25.1 nM. The Emax at 100 µM in assay [2] was 50%.
As for `O=C(O)c1cnn(-c2nc3ccc(Br)cc3c(=O)[nH]2)c1` [Example 13, 1-(6-Bromo-4-oxo-3,4-dihydro-quinazolin-2-yl)-1H-pyrazole-4-carboxylic acid], the IC50 in assay [1] was 63.1 nM. In assay [2], the Emax at 100 µM came to 35%.
As for `O=C(O)c1cnn(-c2nc3c(Cl)cccc3c(=O)[nH]2)c1` [Example 14, 1-(8-Chloro-4-oxo-3,4-dihydro-quinazolin-2-yl)-1H-pyrazole-4-carboxylic acid], the IC50 in assay [1] was 251 nM. In assay [2], the Emax at 100 µM was determined as 8%.
Turning to `O=C(O)c1cnn(-c2nc3ccc(OC(F)(F)F)cc3c(=O)[nH]2)c1` [Example 15, 1-(4-Oxo-6-trifluoromethoxy-3,4-dihydro-quinazolin-2-yl)-1H-pyrazole-4-carboxylic acid], in assay [1], the IC50 is 15.8 nM. Further, in assay [2], the Emax at 100 µM was 19%.
For `O=C(O)c1cnn(-c2nc3c(C(F)(F)F)cccc3c(=O)[nH]2)c1` [Example 16, 1-(4-Oxo-8-trifluoromethyl-3,4-dihydro-quinazolin-2-yl)-1H-pyrazole-4-carboxylic acid], the IC50 in assay [1] was 251 nM. Further, in assay [2], the Emax at 100 µM turned out to be 16%.
Regarding `COc1cc2nc(-n3cc(C(=O)O)cn3)[nH]c(=O)c2cc1OC` [Example 17, 1-(6,7-Dimethoxy-4-oxo-3,4-dihydro-quinazolin-2-yl)-1H-pyrazole-4-carboxylic acid], the IC50 in assay [1] was 200 nM. Besides, the Emax at 100 µM in assay [2] came out at 33%.
Consider `COc1cc2nc(-n3cc(C(=O)O)cn3)[nH]c(=O)c2c(OC)c1OC` [Example 18, 1-(5,6,7-Trimethoxy-4-oxo-3,4-dihydro-quinazolin-2-yl)-1H-pyrazole-4-carboxylic acid], for which, in assay [1], the IC50 is 316 nM. In assay [2], the Emax at 100 µM was 42%.
Turning to `CC(C)(C)c1ccc2nc(-n3cc(C(=O)O)cn3)[nH]c(=O)c2c1` [Example 19, 1-(6-tert-Butyl-4-oxo-3,4-dihydro-quinazolin-2-yl)-1H-pyrazole-4-carboxylic acid], the IC50 in assay [1] was 39.8 nM. In addition, in assay [2], the Emax at 100 µM came out at 45%.
On the same counts, the results for `O=C(O)c1cnn(-c2nc3ccc(Oc4ccccc4)cc3c(=O)[nH]2)c1` [Example 20, 1-(4-Oxo-6-phenoxy-3,4-dihydro-quinazolin-2-yl)-1H-pyrazole-4-carboxylic acid] are 25.1 nM and 104%.
Consider `O=C(O)c1cnn(-c2nc3ccc(C4CCCCC4)cc3c(=O)[nH]2)c1` [Example 21, 1-(6-Cyclohexyl-4-oxo-3,4-dihydro-quinazolin-2-yl)-1H-pyrazole-4-carboxylic acid], for which the IC50 in assay [1] was 25.1 nM. Besides, the Emax at 100 µM in assay [2] turned out to be 84%.
In the case of `O=C(O)c1cnn(-c2nc3cc(Cl)c(OC(F)(F)F)cc3c(=O)[nH]2)c1` [Example 22, 1-(7-Chloro-4-oxo-6-trifluoromethoxy-3,4-dihydro-quinazolin-2-yl)-1H-pyrazole-4-carboxylic acid], the IC50 in assay [1] is 31.6 nM. In addition, the Emax at 100 µM in assay [2] came to 61%.
For `O=C(O)c1cnn(-c2nc3ccc4[nH]ccc4c3c(=O)[nH]2)c1` [Example 23, 1-(1-Oxo-2,7-dihydro-1H-pyrrolo[3,2-f]quinazolin-3-yl)-1H-pyrazole-4-carboxylic acid], the IC50 in assay [1] is 158 nM. Besides, in assay [2], the Emax at 100 µM was determined as 33%.
